pEC50: −log10 of the molar value.
Columns and labels:
INS-1E cells = assay: Cytokine-induced caspase-3/7 activation in INS-1E cells (beta cell stress/apoptosis model, Caspase-Glo 3/7); type: cell-based; conditions: Rattus norvegicus, cytokine mix (IFN-γ, IL-1β, TNF-α), 24 hours, caspase 3/7 activity, read-out: CYT EC50
Excerpt: The INS-1E cell line, a rat insulinoma cell line, has been characterized extensively. INS-1E cells respond to glucose by secreting insulin and, unlike most other immortalized β-cell lines, they do this in a consistent manner over time. The cells are sensitive to hyperglycemia-, free fatty acid (FFA)-, and cytokine-induced stress. Prolonged stress ultimately leads to induction of apoptotic pathways and, if stress is not counter-acted, to apoptosis. Caspase-3 and -7 play a central role downstream where various apoptotic pathways merge. As such, activation (i.e. cleavage) of these caspases forms a relevant primary read-out to evaluate protective activity of compounds against stress-induced apoptosis.
To evaluate the efficacy of different compounds to prevent induction of apoptosis, an in vitro screen was developed in which INS-1E cells were exposed to a cytokine mix (IFN-γ, 5 ng/ml; IL-1β, 20 pg/ml; TNF-α, 0.25 ng/ml). The degree of induction of apoptosis was evaluated using a substrate for cleaved caspase-3 and -7, i.e. a proluminescent caspase-3/7 DEVD aminoluciferin substrate with a thermostable luciferase (Caspase-Glo® 3/7 assay; Promega, cat. G8092).
On day 0, INS-1E cells were plated in a white-walled 96-well microplate (Greiner, cat. 655098) at 20,000 cells per well in 100 μl complete medium (RPMI containing 11 mM glucose supplemented with 5% FCS, 100 IU/ml penicillin, 100 μg/ml streptomycin, 10 mM HEPES, 1 mM Sodium Pyruvate and 50 μM 2-Mercapto-ethanol). On day 2, 100 μl medium containing cytokines and compound dissolved in DMSO was added to the cells. Wells without cytokines containing DMSO and wells with cytokines and DMSO were included to evaluate the degree of caspase 3/7 activation by the cytokine mix. After 24 hours exposure to cytokines and/or compound, Caspase-Glo® 3/7 reagent was added to the cells and caspase activity was determined by measuring luminescence.
To evaluate compound efficacy, the “toxicity window” was calculated by subtracting caspase activity of wells without stressor from activity of wells with stressor but without compound. The amount of caspase activity in the latter wells was normalized to 1 and used as reference. Subsequently, caspase activity in the wells with stressor and varying concentrations of compound was calculated relative to the wells without compound. Plotting caspase activity vs the log 10 of the concentration of compound permitted calculation of the EC50 values for the compounds which typically lied between 0.0001 and 10 μM. Compounds with an EC50<10 μM were considered active.

M17_3SYN cells = assay: Paraquat-induced cytotoxicity (LDH) in α-synuclein over-expressing M17_3SYN neuroblastoma cells; type: cell-based, human; conditions: Homo sapiens, Neuroblastoma cell, 48 h, toxicity inhibition (LDH) in M17_3SYN cells challenged with 6 mM paraquat, 2 days; read-out: SYN EC50
Summary of the method: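 Human BE-M17 neuroblastoma cells stably overexpressing wild-type α-synuclein challenged with paraquat (final 6 mM) for 2 days at 37 °C alongside compounds over a concentration range. Cytotoxicity as LDH released relative to total LDH; EC50 from dose-dependent inhibition curve.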

db/db mice = assay: In vivo evaluation in db/db mice (type 2 diabetes model); conditions: 15 mg/kg IP, vs vehicle
Excerpt: For in vivo evaluation of compound efficacy, male BKS.Cg-+Leprdb/Leprdb/OlaHsd mice (db/db mice—Harlan) were used. The db/db phenotype results from a mutation in the leptin receptor gene, leading to a splice variant (Chen, Charlat et al. 1996; Lee, Proenca et al. 1996). The development of type 2 diabetes in db/db mice is associated with reduced insulin levels due to progressive β-cell failure following an initial period of hypersecretion of insulin. Since these mice develop type 2 diabetes in a manner related to pathology development in humans, and the model is accepted as in vivo model for evaluation of novel anti-diabetic treatments by the Food and Drug Administration (FDA, US), it is a highly relevant model for testing candidate drugs for efficacy.
Compounds were administered intraperitoneal (IP) or oral (PO) at a dose of maximally 50 mg/kg. Mice were subjected to metabolic analysis weekly or bi-weekly. These tests included but were not limited to determination of fasting (5 hrs) and non-fasting blood glucose levels, plasma insulin levels, % glycated hemoglobin (HbA1c) levels, glucose tolerance test and insulin sensitivity test.

Row | Compound | pEC50 (INS-1E cells) | pEC50 (M17_3SYN cells) | Plasma insulin levels (db/db mice; after 6 weeks of treatment, FIG. 1C) | weight gain (non-fasted body weight) (db/db mice; FIG. 1A) | Fasted blood glucose levels (db/db mice; FIG. 1B)
1 | CSc1ccc(S(=O)(=O)N2CCN(c3nc(C4(c5ccc(F)cc5)CC4)no3)CC2)cc1 [Cmpd110, 1-{3-[1-(4-Fluoro-phenyl)-cyclopropyl]-[1,2,4]oxadiazol-5-yl}-4-(4-methylsulfanyl-benzenesulfonyl)-piperazine] | 8.00 | 7.52 | significantly higher | increased | significantly lower
2 | O=S(=O)(c1ccc(OC(F)F)cc1)N1CCN(c2nc(C3(c4ccccc4)CC3)no2)CC1 [Cmpd122, 1-(4-Difluoromethoxy-benzenesulfonyl)-4-[3-(1-phenyl-cyclopropyl)-[1,2,4]oxadiazol-5-yl]-piperazine] | 7.37 | 8.05 | – | – | –
3 | CSc1ccc(S(=O)(=O)N2CCN(c3nc(C(F)(F)c4ccccc4)no3)CC2)cc1 [Cmpd157, 1-[3-(Difluoro-phenyl-methyl)-[1,2,4]oxadiazol-5-yl]-4-(4-methylsulfanyl-benzenesulfonyl)-piperazine] | 6.30 | 8.40 | – | – | –
4 | COc1ccc(S(=O)(=O)N2CCC3(CC2)CN(c2nc(C4(c5ccc(F)cc5)CC4)no2)C3)cc1 [Cmpd213, 3-(1-(4-Fluorophenyl)cyclopropyl)-5-(7-((4-methoxyphenyl)sulfonyl)-2,7-diazaspiro[3.5]nonan-2-yl)-1,2,4-oxadiazole] | 8.00 | 6.44 | – | – | –
